In PubChem BioAssay AID2305 (GlaxoSmithKline (GSK), 2010):
Several values for one entry are separate records, joined by “and”; a condition that tells them apart may be missing. Equal entries are not always repeated.

Tested on: P. falciparum 3D7 growth, pLDH absorbance
Test: blood-stage malaria parasite growth potency – strain 3D7, dose response (AID 2305)

Structure (SMILES) | IC50
O=C1C[C@@H]([S@@](=O)Cc2nccs2)N1CCOCCCCCCc1ccc(Cl)cc1 | 1020 nM
O=C(NCc1cccc2ccccc12)C(c1cc2ccccc2o1)N1CCN(C(c2ccccc2)c2ccccc2)CC1 (configuration not stated) | 670 nM
CN(C)CCOc1cc(NC(=O)Nc2ccc(-c3ccncc3)c3ccccc23)ccc1I | 780 nM
O=C(c1ccc(-c2ccc(-c3nc4ccc(F)cc4[nH]3)cc2)cc1)N1CCCCC1CN1CCC(O)C1 (configuration not stated) | 370 nM
COc1ccccc1CCNc1nc(C)cc(NCCC(=O)Nc2ccccc2)n1 | 810 nM
COc1ccc(-c2cccc(NC(=O)c3ccc(Cl)cc3)c2)cc1CN1CCCN(C)CC1 | 390 nM
Oc1ccc(Cl)cc1CN1CCCC(COC(c2ccc(F)cc2)c2ccc(F)cc2)C1 (configuration not stated) | 680 nM
CC(C)(C)c1ccc(CN2CCC(NC(=O)c3ccc(-c4cccc(F)c4)s3)CC2)cc1 | 1090 nM
CCCC(CNCc1ccccc1)CNc1cc(=O)c2ccccc2[nH]1 (configuration not stated) | 1020 nM
COc1ccc(Cn2c(=O)[nH]c3cc(C(=O)NC4CCN(Cc5ccccc5)CC4)ccc3c2=O)cc1 | 750 nM
O=C(Nc1ccc(C(=O)OC[C@@H]2CCCN3CCCC[C@H]23)cc1)c1ccc(Cl)c(Cl)c1 | 720 nM
Cc1ccc(Oc2c(-c3ccccc3CN3CCCC3CN(C)C)cnn(C)c2=O)cn1 (configuration not stated) | 1160 nM
CN(C)Cc1cccc(-c2cc3c(-c4cnn(C)c4)c(Cl)cnc3[nH]2)c1 | 910 nM
O=C(CSc1nc2ccc([N+](=O)[O-])cc2s1)Nc1ccccc1-c1ccccc1 | 1170 nM
CCOc1ccccc1C1CCN(CCCCNC(=O)c2ccc(NC(=O)c3ccc(Cl)cc3)cc2)CC1 | 850 nM
O=C(CC1CCCC1)N(Cc1ccc(-c2ccc(CNC3Cc4ccccc4C3)cc2)cc1)CC1CCCCN1 (configuration not stated) | 1060 nM
COc1ccc2nc3cc(Cl)ccc3c(NCCCCCCNc3c4ccc(Cl)cc4nc4ccc(OC)cc34)c2c1 | 660 nM
O=C(/C=C/c1c(Cl)cccc1Cl)NC1CCC(CN2CCC(Cc3cc4ccccc4[nH]3)CC2)CC1 (configuration not stated) | 970 nM
COC(=O)c1cccc(CNCc2ccc(-c3ccc(-c4nc5ccc(F)cc5[nH]4)s3)cc2)c1 | 590 nM
CC(C)CNCc1ccc(-c2cccc(CN(C(=O)NC3CCCCC3)C3CCN(Cc4ccccc4)CC3)c2)cc1 | 800 nM
COc1ccc(C2=C(Nc3ccc4oc5ccccc5c4c3)c3ccccc3C2=O)cc1 | 830 nM
c1ccc2[nH]c(-c3ccc(-c4ccc(CN5CCN(c6ccncc6)CC5)cc4)s3)nc2c1 | 200 nM
Cc1nc(Nc2ccncc2)cc(-c2ccncc2)n1 | 730 nM
COc1cc(Cc2cnc(N)nc2N)cc(OCCCCC2NC(=O)NC2=O)c1OC (configuration not stated) | 710 nM

Structure (SMILES) | IC50
Cc1cc(NC(=O)Nc2ccc(C(C)(C)C)cc2)c2ccccc2n1 | 720 nM
COc1ccc2nc(C)cc(Nc3ccc(Oc4ccc5ccccc5c4)c(Cl)c3)c2c1 | 690 nM
COc1ccc(/C=C/C(=O)NCCCCCN2CCC(c3c[nH]c4ccccc34)CC2)cc1O | 960 nM
NCCCNc1nc(Nc2ccc(C(F)(F)F)cc2F)c2c(=O)[nH]ccc2n1 | 1050 nM
Cc1c(C)n(C2CCCC2)c2ncnc(OC3CCN(CC(=O)NC4CC4)CC3)c12 | 790 nM
CN(C)c1ccc(C=Cc2ccc3ccccc3n2)c(Cl)c1 | 440 nM
COc1cc2c(cc1N1CCN(C)CC1)N(C(=O)Nc1ccc(-c3ccncc3)c(Cl)c1Cl)CC2 | 610 nM
O=c1cc(NCCCNCc2[nH]c3cc(Cl)cc(Cl)c3c2Cn2cccn2)[nH]c2ccccc12 | 970 nM
CC1CCCC(Nc2noc(-c3sccc3Br)n2)C1 (configuration not stated) | 690 nM
CN1CCC(c2nc(N)no2)C1 (configuration not stated) | 980 nM
O=C(Nc1cccc(-c2cccc(-c3nc4ccc(F)cc4[nH]3)c2)c1)c1csnn1 | 790 nM
Cc1ccc(C)c(C2CCN(CCCCNC(=O)c3ccc(NC(=O)c4ccc(Cl)cc4)cc3)CC2)c1 | 850 nM
O=C(NC1CCN(Cc2ccccc2O)C1)c1ccc(Cl)c(Cl)c1 (configuration not stated) | 890 nM
Fc1ccc(-c2cncc(-c3ccc(F)cc3)n2)cc1 | 640 nM
Nc1cccc(CNCc2cccc(-c3cccc(-c4nc5ccc(F)cc5[nH]4)c3)c2)c1 | 690 nM
CC(=O)Nc1ccc(NC(=O)c2cc(-c3ccc(C)cc3O)n[nH]2)cc1 | 490 nM
CCOC(=O)Cn1ccc2c(NCc3ccccc3)nc(C)nc21 | 370 nM
COc1ccc2nc(C)cc(Nc3ccc(Cl)c(Cl)c3)c2c1 | 440 nM
Cc1cc(NC2CCCC2)nc(Nc2ccccc2C)n1 | 1350 nM
COc1cc(N)c(Cl)cc1C(=O)NC1CCC(NCC2CCCCC2)CC1 (configuration not stated) | 430 nM
COc1ccc2nccc([C@@H](O)CN3CCC(NC(=O)c4ccc(CN5CCN(c6cccc(C)c6)CC5C)cc4)CC3)c2c1 (some centres not stated) | 210 nM
COc1cc(NCCCNC(=O)c2cc3c(Cl)cc(Cl)cc3[nH]2)nc2ccccc12 | 140 nM
CC(C)/C(=C(/F)CN1C(=O)C(NC(=O)c2cc3ccccc3[nH]2)C(=O)N(c2ccccc2)c2ccccc21)c1ccccc1 (configuration not stated) | 700 nM
Cc1cc(NN=Cc2ccccc2Cl)c2cccc(C)c2n1 | 710 nM

Structure (SMILES) | IC50
CCOc1ccc(C=CC(=O)Nc2ccc3nc(N4CCN(C)CC4)cc(C)c3c2)cc1OC | 400 nM
CN1CCN(c2ccc(-c3cc(-c4cc(F)c(F)c(F)c4)cnc3N)cc2)CC1 | 1010 nM
Cc1cc(NN=Cc2cccc(Cl)c2)c2ccc(F)cc2n1 | 240 nM
COc1ccc(Nc2nc(NN=Cc3cc(Cl)ccc3O)nc(Nc3ccccc3)n2)cc1 | 650 nM
Cc1ccc(F)c(CN2CCC(N3CC(c4ccccc4)(c4ccccc4)OC3=O)CC2)c1Cl | 590 nM
COc1ccc(-c2cc(C(=O)N[C@@H](CC3CCCCC3)C(=O)NCCN3CCCC3)ccc2O)cc1 | 870 nM
O=C(Nc1ccc(-c2nc3ccccc3[nH]2)cc1)C1CCN(Cc2ccc(F)cc2)CC1 | 840 nM
Fc1ccc2nc(-c3cccc(-c4cccc(CN5CCN(c6ccncc6)CC5)c4)c3)[nH]c2c1 | 150 nM
CCNC(=O)Nc1ccc(-c2cccc(-c3nc4c(C)cccc4[nH]3)c2)cc1 | 760 nM
COc1ccc2nccc([C@@H](O)CN3CCC(NC(=O)c4ccc5nc(-n6cccc6)sc5c4)CC3)c2c1 | 1000 nM
O=C(Nc1ccc(Oc2cccnc2)cc1)C1CCN(Cc2cc(Cl)ccc2O)CC1 | 1350 nM
O=C(Cc1cnc[nH]1)Nc1ccc(-c2cccc(-c3nc4ccc(F)cc4[nH]3)c2)cc1 | 800 nM
COc1ccc(C=CC(=O)NC(=O)c2ccccc2OC(=O)c2ccccc2)cc1OC | 910 nM
N#Cc1ccccc1N1CCN(C2CCC(NC(=O)c3n[nH]c4cc(C(F)(F)F)ccc34)CC2)CC1 (configuration not stated) | 1370 nM
CC(C)(C)c1cc(/C=C/C(=O)NC2CCC(CN3CCC(c4c[nH]c5ccccc45)CC3)CC2)cc(C(C)(C)C)c1O (configuration not stated) | 720 nM and 700 nM
COc1ccc2nccc(N3CCC(CCNCc4cc5c(cn4)OCCO5)CC3)c2c1 | 870 nM
Cc1cc(N(C)C2CCN(C)C2)nc(Nc2ccc(Cl)cc2)n1 (configuration not stated) | 340 nM
CN(C)CCC1CCCc2ccc(NC(=O)Nc3cccc(Cl)c3Cl)cc21 (configuration not stated) | 960 nM
COc1ccc(OC)c(C=NNc2nc3ccccc3[nH]2)c1 | 730 nM
COCCOC(=O)C(=O)c1c(-c2ccccc2)c(-c2ccc(OC)c(OC)c2)c2c3cc(OC)c(OC)cc3ccn12 | 500 nM
N#Cc1cccc(NC(=O)Nc2cccc(-c3cccc(-c4nc5ccc(C(F)(F)F)cc5[nH]4)c3)c2)c1 | 220 nM
Fc1ccc2nc(-c3ccc(-c4ccc(CNCC5CCCO5)cc4)cc3)[nH]c2c1 (configuration not stated) | 440 nM
COc1cc2c(=O)c(Cc3ccc(Cl)cc3)c(C)[nH]c2cc1F | 1160 nM
N#Cc1cccc(NC(=O)NC2CCN(CCCCCNC(=O)/C=C/c3ccc(Cl)c(Cl)c3)CC2)c1 | 710 nM
